According to US20220347279A1, “VCX/Y PEPTIDES AND USE THEREOF” (BOARD OF REGENTS, THE UNIVERSITY OF TEXAS SYSTEM, priority 2019, published 2022):

What was measured:
Format in all cases: cell-based
VCX54 TCR-T cells [1] = assay: VCX118 peptide cross reaction detection (peptide titration on T2 cells, ICS); details: T2 cells pulsed with high concentration of peptide
Experimental: For VCX118 peptide cross reaction detection, different concentration of VCX118 peptide were used to pulse T2 cells and then co-cultured with VCX54 TCR-T cells. […] M26 peptide was used as a negative control (FIG. 2).
(§1) Intracellular cytokine staining (ICS) assay: The T cells were incubated with target cells at 10:1 ration in the presence of brefeldin A (BFA) at 37° C. overnight. After co-culturing, the T cells were harvested and washed. The cells were stained with flow antibody anti surface marker first. After that, the cells were washed and fixed with Fix Buffer and then were permeabilized using Permeabilizing Solution (eBioscience). Permeabilized cells are then stained with intracellular cytokine flow antibody. Finally, the level of cytokine producing in the cells was analyzed using FACS.

VCX54 TCR-T cells [2] = assay: Peptide titration killing assay (calcein-AM quenching assay); details: peptide-pulsed T2 cells labeled with Calcein-AM, high concentrations
Excerpt: Different concentrations of VCX118 peptide were pulsed to T2 cells, labeled with Calcein-AM, and co-cultured with VCX54 TCR-T cells. The calcein-AM quenching assay was used to detect VCX54 TCR-T killing ability in response to the antigen.

VCX54 TCR-T cells [3] = assay: Overlap peptide library screening: peptide-pulsed T2 cells co-cultured with VCX54 TCR-T, ICS of activation markers; details: peptide pulsed to T2 cells, overnight co-culture
Experimental: Overlap peptide library screening was performed for the recognition target peptide of VCX54 TCR-T cells (FIG. 1). The 9-mer peptide with 8 amino acid overlap peptide library covering the whole length of VCX3A protein was screened for the VCX54 TCR-T cell recognized target. The peptide was pulsed to T2 cell one by one and co-cultured with VCX54 TCR-T. After overnight culturing, the activated marker of T cells such as CD137, CD69, IFN-r and TNFa were detected using intracellular cytokine staining (ICS).
as §1

HLA-A2 = target: T1, HLA-A2 (Homo sapiens, UniProt P04439, D140Y/D185E/D98H/E176V/E277Q/G131W/G231S/I119V/I121R/I166T/I218V/L300P/L318F/N151K/N90K/P208A/P217A/Q86G/Q94H/R138H/R169H/T345S); assay: VCX118 peptide HLA-A2 binding assay (HLA-A2 stability analysis on T2 cells); details: T2 cells pulsed with different concentrations of peptide
T1 construct: endogenous in cells; host or cells: T2 cells
Experimental: Different concentrations of VCX118 peptide were pulsed to T2 cells, and the HLA-A2 stability analysis was performed to detect the VCX118 peptide binding ability. VCX54, M26 and M27 peptide were used as control.

VCX54 TCR-T cells [4] = assay: VCX54 TCR-T recognition of longer peptides comprising VCX118 (ICS); details: peptides pulsed to T2 cells, co-cultured with VCX54 TCR-T cells
Experimental: Different length of peptides with VCX118 were pulsed to T2 cells and co-cultured with VCX54 TCR-T cells. The VCX118 peptide was used as a control.
as §1

| Substance | ICS response relative to VCX54 original peptide (VCX54 TCR-T cells [1]) | cross recognition by VCX54 TCR-T (ICS) (VCX54 TCR-T cells [1]) | VCX54 TCR-T killing response relative to VCX54 peptide (VCX54 TCR-T cells [2]) | induction of response of VCX54 TCR-T (CD137, CD69, IFN-r, TNFa by ICS) (VCX54 TCR-T cells [3]) | binding ability to HLA-A2 (HLA-A2) | recognition by VCX54 TCR-T cells (ICS) (VCX54 TCR-T cells [4]) |
| --- | --- | --- | --- | --- | --- | --- |
| SEVEEPLSQ (listed as Homo sapiens) [VCX118, 9-mer VCX/Y peptide shared with all VCX/Y family members] | higher than the VCX54 original peptide | cross recognized by VCX54 TCR-T | higher than the VCX54 peptide | also be able to induce the response of VCX54 TCR-T cells | weak binding ability | only recognized the VCX118 peptide |
| VCX54: the target (original) 9-mer peptide of VCX3A recognized by VCX54 TCR-T cells; sequence not printed (GAATKMAAV) [reference compound] | – | – | – | able to induce the response of VCX54 TCR-T | – | – |
